This is an account of results in US8846708B2, “Salt of a pyrimidin derivative” (Laboratorios Senosiain S.A. de C.V., priority 2010, dated 2014).

For data set [1] the following is noted: in vivo; cited from earlier work.
Data set [2] can be described thus: Description / flowability of the salt powder. In kind it is physicochemical.
Data set [3] in a line: physchem. The protocol: Additionally, a comparative solubility test was performed between rosuvastatin calcium and rosuvastatin lysine.
Data set [4] concerns proteins. Particulars: cited from earlier work.
The conditions of data set [5]: cited from earlier work.

As a reminder, the solubility is the concentration that dissolves in the medium under given conditions. In the case of `CC(C)c1nc(N(C)S(C)(=O)=O)nc(-c2ccc(F)cc2)c1/C=C/[C@@H](O)C[C@@H](O)CC(=O)O` [rosuvastatin calcium, (3R,5S,6E)-7-[4-(4-fluorophenyl)-2-(N-methylmethanesulfonamide)-6-(propan-2-yl)pyrimidin-5-yl]-3,5-dihydroxihept-6-enoic acid], in data set [1], the Absolute bioavailability result is listed as “approximately 20%”, the Excretion in feces is 90% and the Excretion in urine is listed as 10%. Also, the “Description: flowability” value in data set [2] is reported as “without flowability”. For the same compound, in data set [3], the “Solubility, HCl 10%” value was “It sticks to the bottom of the container” and the “Solubility, Methanol” value is recorded as “Taffy”. This compound also yielded a solubility in data set [3] (aqueous buffer) of 600 µg/mL. Also, the solubility in data set [3] (organic solvent or mixture) is 10000 µg/mL. In data set [3] (water), the solubility was 5300 µg/mL. For the same compound, in data set [4], the Binding to proteins was 88%.

Consider `CC(C)c1nc(N(C)S(C)(=O)=O)nc(-c2ccc(F)cc2)c1/C=C/[C@@H](O)C[C@@H](O)CC(=O)O` [Rosuvastatin, (3R,5S,6E)-7-[4-(4-fluorophenyl)-2-(N-methylmethanesulfonamide)-6-(propan-2-yl)pyrimidin-5-yl]-3,5-dihydroxihept-6-enoic acid], for which, in data set [5], the “Solubility in water” value is reported as “slightly soluble in water”.
